The text below walks through data of US20260159512A1, “BCAT2 INHIBITORS” (AGIOS PHARMACEUTICALS, INC., priority 2021, published 2026).

For one assay, the target named is T1, BCAT2 (Homo sapiens, UniProt O15382).
T1 sequence (O15382 28-392): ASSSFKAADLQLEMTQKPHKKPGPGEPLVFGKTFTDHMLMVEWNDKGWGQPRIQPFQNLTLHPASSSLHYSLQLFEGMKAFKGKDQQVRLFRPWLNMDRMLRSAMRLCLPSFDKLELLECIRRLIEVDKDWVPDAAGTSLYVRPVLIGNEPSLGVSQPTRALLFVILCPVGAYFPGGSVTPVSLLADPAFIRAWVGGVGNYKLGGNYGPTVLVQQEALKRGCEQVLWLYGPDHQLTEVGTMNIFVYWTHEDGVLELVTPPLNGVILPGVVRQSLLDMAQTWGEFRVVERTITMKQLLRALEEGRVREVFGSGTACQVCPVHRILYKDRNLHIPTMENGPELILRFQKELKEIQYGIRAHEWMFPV
Kind of assay: BCAT2 in vitro enzyme inhibition assay (resazurin/diaphorase-coupled fluorescence). It is filed as biochemical. The following applies: average where tested multiple times. An outline of the steps:
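Coupled fluorescence readout: glutamate formed from L-leucine/α-ketoglutarate transamination drives GDH/NAD/diaphorase reduction of resazurin (Ex 540/Em 590). Human BCAT2 was first exposed 1 h at room temperature to compound, top final 100 μM in 3-fold, 10-point series; substrate reaction ran 1 h before SDS quench, in technical duplicate with DMSO max and enzyme-free min controls.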

The next assay concerns the target T2, hBCAT1 (Homo sapiens, UniProt P54687).
T2 sequence (P54687 1-386): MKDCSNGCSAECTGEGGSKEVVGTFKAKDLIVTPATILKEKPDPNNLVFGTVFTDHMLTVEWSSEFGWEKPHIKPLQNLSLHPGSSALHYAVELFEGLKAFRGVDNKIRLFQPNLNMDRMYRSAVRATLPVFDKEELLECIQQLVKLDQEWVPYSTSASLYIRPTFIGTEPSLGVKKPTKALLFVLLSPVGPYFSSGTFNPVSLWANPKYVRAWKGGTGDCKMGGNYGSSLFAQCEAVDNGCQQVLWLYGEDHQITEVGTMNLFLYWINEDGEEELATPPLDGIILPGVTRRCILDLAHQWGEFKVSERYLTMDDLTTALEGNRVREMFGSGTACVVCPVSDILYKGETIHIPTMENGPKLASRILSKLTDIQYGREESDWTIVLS
Kind of assay: BCAT1 in vitro enzyme inhibition assay (resazurin/diaphorase-coupled fluorescence). It is filed as biochemical. The following applies: average where tested multiple times. The procedure: BCAT1 In Vitro Enzyme Inhibition Assay
Meanwhile the Substrate Mix was prepared.
Test Compound Preparation:
Test compounds were prepared at 50× final concentration in DMSO, 1 to 3 dilutions were made for 10 points. The compounds were added to the assay as a 1 to 50 dilution (1 μL in 50 μL) to yield a top assay final concentration of 100 μM, decreasing 3-fold for 10 points. […] All tests were performed in technical duplicate.
Where a compound was tested multiple times, the average value of the tests is reported.

Consider `Cc1nsc(-c2cc3c(cn2)nc(CC(C)C)n3[C@@H]2CCC[C@H](NC(=O)c3ncc(Cl)s3)C2)n1` [Example 336, 5-chloro-N-((1S,3R)-3-(2-isobutyl-6-(3-methyl-1,2,4-thiadiazol-5-yl)-1H-imidazo[4,5-c]pyridin-1-yl)cyclohexyl)thiazole-2-carboxamide], for which the results for the IC50 on BCAT2 and at hBCAT1 were 100 to 500 nM and 1000 to 5000 nM, respectively.
In the case of `O=C(NC1COCC(n2c(-c3ncccc3F)nc3cnc(-n4ccnn4)cc32)C1)c1ncc(C(F)F)s1` (single isomer, unassigned) [Example 144, 5-(difluoromethyl)-N-(5-(2-(3-fluoropyridin-2-yl)-6-(1H-1,2,3-triazol-1-yl)-1H-imidazo[4,5-c]pyridin-1-yl)tetrahydro-2H-pyran-3-yl)thiazole-2-carboxamide], the IC50 against BCAT2 is 500 to 1000 nM; against hBCAT1, > 5000 nM.
As to `CC(C)Cc1nc2cnc(-c3ncccn3)cc2n1[C@H]1C[C@H](O)C[C@@H](NC(=O)c2ncc(Cl)s2)C1` (stereo in doubt) [Example 398, 5-chloro-N-((1S,3R,5R)-3-hydroxy-5-(2-isobutyl-6-(pyrimidin-2-yl)-1H-imidazo[4,5-c]pyridin-1-yl)cyclohexyl)thiazole-2-carboxamide], the values for the IC50 against BCAT2 and against hBCAT1 were ≤ 100 nM and < 500 nM, respectively.
For `C#Cc1ccc(C(=O)NC2CC(n3c(-c4ccccc4F)nc4cc(C(=O)NC)c(OC)cc43)CN(C)C2)s1` (stereo not drawn) [Example 292, 1-(5-(5-ethynylthiophene-2-carboxamido)-1-methylpiperidin-3-yl)-2-(2-fluorophenyl)-6-methoxy-N-methyl-1H-benzo[d]imidazole-5-carboxamide], the IC50 was ≤ 100 nM at BCAT2 and 1000 to 5000 nM against hBCAT1.
In the case of `CC(C)Cc1nc2cnc(-c3ccccc3F)cc2n1[C@@H]1CCC[C@H](NC(=O)c2ncc(Cl)s2)C1` [Example 206, 5-chloro-N-((1S,3R)-3-(6-(2-fluorophenyl)-2-isobutyl-1H-imidazo[4,5-c]pyridin-1-yl)cyclohexyl)thiazole-2-carboxamide], the values for the IC50 at BCAT2 and against hBCAT1 were 100 to 500 nM and > 5000 nM, respectively.
Take `O=C(NC1COCC(n2c(-c3ccccn3)nc3cnc(-n4ccnn4)cc32)C1)c1ncc(C(F)F)s1` (single isomer, unassigned) [Example 146, 5-(difluoromethyl)-N-(5-(2-(pyridin-2-yl)-6-(1H-1,2,3-triazol-1-yl)-1H-imidazo[4,5-c]pyridin-1-yl)tetrahydro-2H-pyran-3-yl)thiazole-2-carboxamide]: the concentration for half-maximal inhibition (IC50) is > 1000 nM against BCAT2 and > 5000 nM on hBCAT1.
Take `CC(C)Cc1nc2cnc(-c3nc[nH]n3)cc2n1[C@@H]1C[C@H](NC(=O)c2ccc(Cl)s2)CC(F)(F)C1` (stereo in doubt) [Example 454, 5-chloro-N-((1S,5R)-3,3-difluoro-5-(2-isobutyl-6-(1H-1,2,4-triazol-3-yl)-1H-imidazo[4,5-c]pyridin-1-yl)cyclohexyl)thiophene-2-carboxamide]: the IC50 at BCAT2 is ≤ 100 nM; against hBCAT1, < 500 nM.
With `CC(C)(O)c1cnn(-c2cc3c(cn2)nc(-c2ccccn2)n3[C@@H]2CCC[C@H](NC(=O)c3ncc(C(F)F)s3)C2)n1` [Example 70, 5-(difluoromethyl)-N-((1S,3R)-3-(6-(4-(2-hydroxypropan-2-yl)-2H-1,2,3-triazol-2-yl)-2-(pyridin-2-yl)-1H-imidazo[4,5-c]pyridin-1-yl)cyclohexyl)thiazole-2-carboxamide], the IC50 against BCAT2 is ≤ 100 nM; against hBCAT1 it was > 5000 nM.
Consider `O=C(N[C@H]1CCC[C@@H](n2c(-c3ccccc3F)nc3cnc(-c4c(F)cccc4F)cc32)C1)c1ncc(Cl)s1` [Example 207, 5-chloro-N-((1S,3R)-3-(6-(2,6-difluorophenyl)-2-(2-fluorophenyl)-1H-imidazo[4,5-c]pyridin-1-yl)cyclohexyl)thiazole-2-carboxamide], for which the IC50 against BCAT2 is 100 to 500 nM; on hBCAT1, > 5000 nM.
